Test results published in patent EP1054888B1 (priority 1998, dated 1999).
In brackets after ≈: the same amount, converted by molar mass.

Assays:
Experiment in all cases: microbe, parasite or virus in culture
Assay type in all cases: cell-based
[1] = system: Leptosphaeria nodorum; details: Parastagonospora nodorum, read-out: MIC (Minimum Inhibitory Concentration) LEPTNO
[2] = system: Magnaporthe grisea f. sp. oryzae; details: Pyricularia oryzae, read-out: MIC (Minimum Inhibitory Concentration) PYRIOR, Table II; total inhibition of mycelial growth, V8 juice nutrient solution, 6-12 days at 18-25°C, visual inspection
[3] = system: Phytophthora infestans; details: read-out: MIC (Minimum Inhibitory Concentration) PHYTIN
[4] = system: Pyrenophora teres; details: read-out: MIC (Minimum Inhibitory Concentration) PYRNTE
[5] = system: Alternaria solani; details: read-out: MIC (Minimum Inhibitory Concentration) ALTESO
[6] = system: Rhizoctonia solani; details: read-out: MIC (Minimum Inhibitory Concentration) RHIZSO
[7] = system: Botrytis cinerea; details: read-out: MIC (Minimum Inhibitory Concentration) BOTRCI
[8] = system: Sclerotinia sclerotiorum; details: read-out: MIC (Minimum Inhibitory Concentration) SCLESC
[9] = system: Monilina fructigena; details: read-out: MIC (Minimum Inhibitory Concentration) MONIFG
[10] = system: Mycosphaerella ligulicola; details: Stagonosporopsis ligulicola, read-out: MIC (Minimum Inhibitory Concentration) MYCOLG

**Q.** `CCCCCCc1c(-c2c(F)cccc2Cl)c(Cl)nc2ncnn12` [Example 1, 5-chloro-7-n-hexyl-6-(2-chloro-6-fluorophenyl)-1,2,4-triazolo[1,5a]pyrimidine] was tested. Which MIC [1] did it give?
**A.** 12.5 µg/mL (≈ 34 µM)

**Q.** And the MIC [2]?
**A.** 1.56 µg/mL (≈ 4.25 µM)

**Q.** And the MIC [3]?
**A.** 100 µg/mL (≈ 272 µM)

**Q.** And the MIC [4]?
**A.** 3.13 µg/mL (≈ 8.52 µM)

**Q.** Which MIC [2] does the source give for `CC1CCC(c2c(-c3c(F)cccc3Cl)c(Cl)nc3ncnn23)CC1` (stereo not drawn) [Example 2, 5-chloro-7-(4-methylcyclohexyl)-6-(2-chloro-6-fluorophenyl)-1,2,4-triazolo[1,5a]pyrimidine] here?
**A.** < 0.05 µg/mL

**Q.** And the MIC [3]?
**A.** > 100 µg/mL

**Q.** And the MIC [5]?
**A.** 0.1 µg/mL (≈ 0.264 µM)

**Q.** What about the MIC [6] of the same compound?
**A.** > 100 µg/mL

**Q.** And the MIC [4]?
**A.** 1.56 µg/mL (≈ 4.11 µM)

**Q.** And the MIC [7]?
**A.** 0.2 µg/mL (≈ 0.527 µM)

**Q.** Which results are given for `COc1nc2ncnn2c(C2CCCCC2)c1-c1c(F)cccc1F` [Example 7, 5-methoxy-7-cyclohexyl-6-(2,6-difluorophenyl)-1,2,4-triazolo[1,5a]pyrimidine]?
**A.** MIC [1]: > 100 µg/mL; MIC [2]: 1.56 µg/mL (≈ 4.53 µM); MIC [3]: > 100 µg/mL; MIC [5]: 1.56 µg/mL (≈ 4.53 µM); MIC [6]: > 100 µg/mL; MIC [4]: > 100 µg/mL; MIC [7]: 12.5 µg/mL (≈ 36.3 µM)

**Q.** What does the source list for `Fc1cccc(Cl)c1-c1c(Cl)nc2ncnn2c1C1CCCO1` (stereo not drawn) [Example 11]?
**A.** MIC [8]: 25 µg/mL (≈ 70.8 µM); MIC [1]: 1.56 µg/mL (≈ 4.42 µM); MIC [9]: 3.13 µg/mL (≈ 8.86 µM); MIC [10]: 12.5 µg/mL (≈ 35.4 µM); MIC [7]: 1.56 µg/mL (≈ 4.42 µM)

**Q.** With `FC(F)(F)Oc1ccccc1-c1c(Cl)nc2ncnn2c1C1CCCO1` (stereo not drawn) [Example 16] as the compound, how does the MIC [8] read?
**A.** > 100 µg/mL

**Q.** What about the MIC [1] of the same compound?
**A.** > 100 µg/mL

**Q.** And the MIC [9]?
**A.** > 100 µg/mL

**Q.** And the MIC [10]?
**A.** > 100 µg/mL

**Q.** And the MIC [7]?
**A.** 25 µg/mL (≈ 65 µM)

**Q.** How did the MIC [8] turn out when `CCCCc1c(-c2c(F)cccc2Cl)c(Cl)nc2ncnn12` [Example 17] was run?
**A.** 0.78 µg/mL (≈ 2.3 µM)

**Q.** What about the MIC [1] of the same compound?
**A.** 0.78 µg/mL (≈ 2.3 µM)

**Q.** And the MIC [9]?
**A.** 3.13 µg/mL (≈ 9.23 µM)

**Q.** What about the MIC [10] of the same compound?
**A.** 0.78 µg/mL (≈ 2.3 µM)

**Q.** And the MIC [7]?
**A.** 0.2 µg/mL (≈ 0.59 µM)

**Q.** `CCCCCc1c(-c2c(F)cccc2Cl)c(Cl)nc2ncnn12` [Example 18] was tested. Which MIC [8] did it give?
**A.** 0.78 µg/mL (≈ 2.21 µM)

**Q.** What about the MIC [1] of the same compound?
**A.** 1.56 µg/mL (≈ 4.42 µM)

**Q.** And the MIC [9]?
**A.** 3.13 µg/mL (≈ 8.86 µM)

**Q.** What about the MIC [10] of the same compound?
**A.** 0.78 µg/mL (≈ 2.21 µM)

**Q.** What about the MIC [7] of the same compound?
**A.** 0.2 µg/mL (≈ 0.566 µM)

**Q.** For `CCCCc1c(-c2ccccc2C)c(Cl)nc2ncnn12` [Example 19], which MIC [1] is on record?
**A.** 12.5 µg/mL (≈ 41.6 µM)

**Q.** And the MIC [2]?
**A.** 0.78 µg/mL (≈ 2.59 µM)

**Q.** And the MIC [3]?
**A.** 50 µg/mL (≈ 166 µM)

**Q.** And the MIC [5]?
**A.** 1.56 µg/mL (≈ 5.19 µM)

**Q.** And the MIC [6]?
**A.** > 100 µg/mL

**Q.** And the MIC [4]?
**A.** 6.25 µg/mL (≈ 20.8 µM)

**Q.** What about the MIC [7] of the same compound?
**A.** 12.5 µg/mL (≈ 41.6 µM)

**Q.** What does the source list for `CCCCc1c(-c2ccccc2Cl)c(Cl)nc2ncnn12` [Example 20]?
**A.** MIC [1]: 3.13 µg/mL (≈ 9.74 µM); MIC [2]: < 0.05 µg/mL; MIC [3]: > 100 µg/mL; MIC [5]: 0.2 µg/mL (≈ 0.623 µM); MIC [6]: 3.13 µg/mL (≈ 9.74 µM); MIC [4]: 3.13 µg/mL (≈ 9.74 µM); MIC [7]: 1.56 µg/mL (≈ 4.86 µM)

**Q.** Which results are given for `CCCCc1c(-c2ccccc2F)c(Cl)nc2ncnn12` [Example 21]?
**A.** MIC [1]: 3.13 µg/mL (≈ 10.3 µM); MIC [2]: < 0.05 µg/mL; MIC [3]: 100 µg/mL (≈ 328 µM); MIC [5]: 0.1 µg/mL (≈ 0.328 µM); MIC [6]: 3.13 µg/mL (≈ 10.3 µM); MIC [4]: 0.78 µg/mL (≈ 2.56 µM); MIC [7]: 1.56 µg/mL (≈ 5.12 µM)

**Q.** For `CCCCc1c(-c2c(F)cccc2F)c(Cl)nc2ncnn12` [Example 22], which MIC [1] is on record?
**A.** 1.56 µg/mL (≈ 4.83 µM)

**Q.** What about the MIC [2] of the same compound?
**A.** 0.1 µg/mL (≈ 0.31 µM)

**Q.** What about the MIC [3] of the same compound?
**A.** > 100 µg/mL

**Q.** And the MIC [5]?
**A.** 0.1 µg/mL (≈ 0.31 µM)

**Q.** What about the MIC [6] of the same compound?
**A.** 1.56 µg/mL (≈ 4.83 µM)

**Q.** And the MIC [4]?
**A.** 6.25 µg/mL (≈ 19.4 µM)

**Q.** What about the MIC [7] of the same compound?
**A.** 1.56 µg/mL (≈ 4.83 µM)

**Q.** Which MIC [1] does the source give for `CCCCc1c(-c2ccccc2)c(Cl)nc2ncnn12` [Example 23] here?
**A.** > 100 µg/mL

**Q.** And the MIC [2]?
**A.** 25 µg/mL (≈ 87.2 µM)

**Q.** And the MIC [3]?
**A.** 50 µg/mL (≈ 174 µM)

**Q.** What about the MIC [5] of the same compound?
**A.** 6.25 µg/mL (≈ 21.8 µM)

**Q.** And the MIC [6]?
**A.** > 100 µg/mL

**Q.** And the MIC [4]?
**A.** > 100 µg/mL

**Q.** What about the MIC [7] of the same compound?
**A.** > 100 µg/mL

**Q.** With `CCc1c(-c2c(F)cccc2Cl)c(Cl)nc2ncnn12` [Example 24] as the compound, how does the MIC [1] read?
**A.** 3.13 µg/mL (≈ 10.1 µM)

**Q.** And the MIC [2]?
**A.** < 0.05 µg/mL

**Q.** And the MIC [3]?
**A.** > 100 µg/mL

**Q.** What about the MIC [5] of the same compound?
**A.** 12.5 µg/mL (≈ 40.2 µM)

**Q.** And the MIC [6]?
**A.** 6.25 µg/mL (≈ 20.1 µM)

**Q.** What about the MIC [4] of the same compound?
**A.** > 100 µg/mL

**Q.** What about the MIC [7] of the same compound?
**A.** 6.25 µg/mL (≈ 20.1 µM)

**Q.** Which MIC [1] does the source give for `CCCc1c(-c2c(F)cccc2Cl)c(Cl)nc2ncnn12` [Example 25] here?
**A.** > 100 µg/mL

**Q.** What about the MIC [2] of the same compound?
**A.** 0.1 µg/mL (≈ 0.308 µM)

**Q.** What about the MIC [3] of the same compound?
**A.** 12.5 µg/mL (≈ 38.4 µM)

**Q.** And the MIC [5]?
**A.** 1.56 µg/mL (≈ 4.8 µM)

**Q.** What about the MIC [6] of the same compound?
**A.** 1.56 µg/mL (≈ 4.8 µM)

**Q.** What about the MIC [4] of the same compound?
**A.** 3.13 µg/mL (≈ 9.63 µM)

**Q.** What about the MIC [7] of the same compound?
**A.** 0.78 µg/mL (≈ 2.4 µM)

**Q.** Which MIC [1] does the source give for `CC(C)Cc1c(-c2c(F)cccc2Cl)c(Cl)nc2ncnn12` [Example 26] here?
**A.** 0.39 µg/mL (≈ 1.15 µM)

**Q.** What about the MIC [2] of the same compound?
**A.** < 0.05 µg/mL

**Q.** And the MIC [3]?
**A.** > 100 µg/mL

**Q.** And the MIC [5]?
**A.** 0.78 µg/mL (≈ 2.3 µM)

**Q.** What about the MIC [6] of the same compound?
**A.** 0.78 µg/mL (≈ 2.3 µM)

**Q.** What about the MIC [4] of the same compound?
**A.** 3.13 µg/mL (≈ 9.23 µM)

**Q.** And the MIC [7]?
**A.** 0.2 µg/mL (≈ 0.59 µM)

**Q.** What does the source list for `CC(C)c1c(-c2c(F)cccc2Cl)c(Cl)nc2ncnn12` [Example 27]?
**A.** MIC [1]: 1.56 µg/mL (≈ 4.8 µM); MIC [2]: 0.2 µg/mL (≈ 0.615 µM); MIC [3]: > 100 µg/mL; MIC [5]: > 100 µg/mL; MIC [6]: 0.39 µg/mL (≈ 1.2 µM); MIC [4]: > 100 µg/mL; MIC [7]: 0.78 µg/mL (≈ 2.4 µM)

**Q.** `CCC(C)c1c(-c2c(F)cccc2Cl)c(Cl)nc2ncnn12` (stereo not drawn) [Example 28] was tested. Which MIC [1] did it give?
**A.** > 100 µg/mL

**Q.** And the MIC [2]?
**A.** 1.56 µg/mL (≈ 4.6 µM)

**Q.** And the MIC [3]?
**A.** > 100 µg/mL

**Q.** What about the MIC [5] of the same compound?
**A.** 6.25 µg/mL (≈ 18.4 µM)

**Q.** What about the MIC [6] of the same compound?
**A.** 0.78 µg/mL (≈ 2.3 µM)

**Q.** What about the MIC [4] of the same compound?
**A.** 6.25 µg/mL (≈ 18.4 µM)

**Q.** What about the MIC [7] of the same compound?
**A.** 3.13 µg/mL (≈ 9.23 µM)

**Q.** With `Fc1cccc(Cl)c1-c1c(Cl)nc2ncnn2c1C1CCCC1` [Example 29] as the compound, how does the MIC [1] read?
**A.** 0.39 µg/mL (≈ 1.11 µM)

**Q.** And the MIC [2]?
**A.** < 0.05 µg/mL

**Q.** And the MIC [3]?
**A.** > 100 µg/mL

**Q.** And the MIC [5]?
**A.** 0.78 µg/mL (≈ 2.22 µM)

**Q.** What about the MIC [6] of the same compound?
**A.** 0.78 µg/mL (≈ 2.22 µM)

**Q.** And the MIC [4]?
**A.** 0.78 µg/mL (≈ 2.22 µM)

**Q.** What about the MIC [7] of the same compound?
**A.** 1.56 µg/mL (≈ 4.44 µM)
